Test results from US10654832B2, “3-(benzoimidazol-2-YL)-indazole inhibitors of the Wnt signaling pathway and therapeutic uses thereof” (Samumed, LLC, priority 2013, dated 2020).

Test system: Wnt activity (wnt-responsive SP5 promoter luciferase reporter in SW480 cells)
Experiment: Wnt activity reporter assay (SP5 promoter-firefly luciferase in SW480 cells)
Type: cell-based
Conditions: Homo sapiens; SW480 colon cancer cells with SP5 promoter luciferase reporter; 24 h after compound addition; half-log dilutions, three micromolar top concentration; normalized to DMSO; read-out: Wnt inhibition
Description: The above synthesized compounds were screened using the assay procedure for Wnt activity described below.
Reporter cell lines were generated by stably transducing cells of cancer cell lines (e.g., colon cancer) with a lentiviral construct that include a wnt-responsive promoter driving expression of the firefly luciferase gene.
Lentiviral constructs were made in which the SP5 promoter, a promoter having eight TCF/LEF binding sites derived from the SP5 promoter, was linked upstream of the firefly luciferase gene. The lentiviral constructs included a hygromycin resistance gene as a selectable marker. The SP5 promoter construct was used to transduce SW480 cells, a colon cancer cell line having a mutated APC gene that generates a truncated APC protein, leading to de-regulated accumulation of β-catenin.
Cultured SW480 cells bearing a reporter construct were distributed at approximately 10,000 cells per well into 384 well multiwell plates. Compounds were then added to the wells in half-log dilutions using a three micromolar top concentration. A series of control wells for each cell type received only buffer and compound solvent. Twenty-four hours after the addition of compound, reporter activity for luciferases was assayed, for example, by addition of the BrightGlo luminescence reagent (Promega) and the Victor3 plate reader (Perkin Elmer). Readings were normalized to DMSO only treated cells, and normalized activities were then used for the IC50 calculations.

Going from `CC(C)(C)CC(=O)Nc1cncc(-c2ccc3[nH]nc(-c4nc5c(-c6cccc(F)c6)cccc5[nH]4)c3c2)c1` [Compound 16, N-(5-(3-(4-(3-Fluorophenyl)-1H-benzo[d]imidazol-2-yl)-1H-indazol-5-yl)pyridin-3-yl)-3,3-dimethylbutanamide] to `O=C(Cc1ccccc1)Nc1cncc(-c2ccc3[nH]nc(-c4nc5c(-c6cccc(F)c6)cccc5[nH]4)c3c2)c1` [Compound 10, N-(5-(3-(4-(3-Fluorophenyl)-1H-benzo[d]imidazol-2-yl)-1H-indazol-5-yl)pyridin-3-yl)-2-phenylacetamide], the IC50 rises from 0.031 µM to 0.069 µM (2.2-fold).

First: CN(C)c1cncc(-c2ccc3[nH]nc(-c4nc5c(-c6cccc(F)c6)cccc5[nH]4)c3c2)c1 [Compound 7, 5-(3-(4-(3-Fluorophenyl)-1H-benzo[d]imidazol-2-yl)-1H-indazol-5-yl)-N,N-dimethylpyridin-3-amine]
Second: Fc1cccc(-c2cccc3[nH]c(-c4n[nH]c5ccc(-c6cccnc6)cc45)nc23)c1 [Compound 4, 3-(4-(3-Fluorophenyl)-1H-benzo[d]imidazol-2-yl)-5-(pyridin-3-yl)-1H-indazole]
The IC50 of the first is 2-fold higher: 0.008 µM for the first, 0.004 µM for the second.

Going from `O=C(Nc1cncc(-c2ccc3[nH]nc(-c4nc5c(-c6ccncc6)cccc5[nH]4)c3c2)c1)C1CCC1` [Compound 116, N-(5-(3-(4-(Pyridin-4-yl)-1H-benzo[d]imidazol-2-yl)-1H-indazol-5-yl)pyridin-3-yl)cyclobutanecarboxamide] to `O=C(Nc1cncc(-c2ccc3[nH]nc(-c4nc5c(-c6ccccn6)cccc5[nH]4)c3c2)c1)C1CCC1` [Compound 140, N-(5-(3-(4-(Pyridin-2-yl)-1H-benzo[d]imidazol-2-yl)-1H-indazol-5-yl)pyridin-3-yl)cyclobutanecarboxamide], the IC50 falls from 0.023 µM to 0.008 µM (2.9-fold).

`CC(C)CC(=O)Nc1cncc(-c2ccc3[nH]nc(-c4nc5c(-c6ccc(F)cc6)cccc5[nH]4)c3c2)c1` [Compound 26, N-(5-(3-(4-(4-Fluorophenyl)-1H-benzo[d]imidazol-2-yl)-1H-indazol-5-yl)pyridin-3-yl)-3-methylbutanamide] and `O=C(Nc1cncc(-c2ccc3[nH]nc(-c4nc5c(-c6ccc(F)cc6)cccc5[nH]4)c3c2)c1)c1ccccc1` [Compound 35, N-(5-(3-(4-(4-Fluorophenyl)-1H-benzo[d]imidazol-2-yl)-1H-indazol-5-yl)pyridin-3-yl)benzamide] are within 1.5-fold of each other in IC50: 0.179 µM for the first, 0.161 µM for the second.

Compared with `c1ccc(-c2cccc3[nH]c(-c4n[nH]c5ccc(-c6cncc(CNCC7CCCC7)c6)cc45)nc23)nc1` [Compound 144, 1-Cyclopentyl-N-((5-(3-(4-(pyridin-2-yl)-1H-benzo[d]imidazol-2-yl)-1H-indazol-5-yl)pyridin-3-yl)methyl)methanamine], `c1ccc(-c2cccc3[nH]c(-c4n[nH]c5ccc(-c6cncc(CN7CCCC7)c6)cc45)nc23)nc1` [Compound 134, 3-(4-(Pyridin-2-yl)-1H-benzo[d]imidazol-2-yl)-5-(5-(pyrrolidin-1-ylmethyl)pyridin-3-yl)-1H-indazole] is 5.4-fold lower in IC50: 1.18 µM for the first, 0.219 µM for the second. The second is the more potent here.

First: CCCCC(=O)Nc1cncc(-c2ccc3[nH]nc(-c4nc5c(N6CCCCC6)cccc5[nH]4)c3c2)c1 [Compound 162, N-(5-(3-(4-(Piperidin-1-yl)-1H-benzo[d]imidazol-2-yl)-1H-indazol-5-yl)pyridin-3-yl)pentanamide]
Second: CCCC(=O)Nc1cncc(-c2ccc3[nH]nc(-c4nc5c(N6CCN(C)CC6)cccc5[nH]4)c3c2)c1 [Compound 209, N-(5-(3-(4-(4-Methylpiperazin-1-yl)-1H-benzo[d]imidazol-2-yl)-1H-indazol-5-yl)pyridin-3-yl)butyramide]
The IC50 of the first is 2.3-fold higher: 0.14 µM for the first, 0.061 µM for the second. The second is the more potent here.

Going from `Cc1ccncc1-c1ccc2[nH]nc(-c3nc4c(-c5ccc(F)cc5)cccc4[nH]3)c2c1` [Compound 29, 3-(4-(4-Fluorophenyl)-1H-benzo[d]imidazol-2-yl)-5-(4-methylpyridin-3-yl)-1H-indazole] to `Cc1ccncc1-c1ccc2[nH]nc(-c3nc4c(-c5cccc(F)c5)cccc4[nH]3)c2c1` [Compound 5, 3-(4-(3-Fluorophenyl)-1H-benzo[d]imidazol-2-yl)-5-(4-methylpyridin-3-yl)-1H-indazole], the IC50 falls from 0.1 µM to 0.034 µM (2.9-fold). The second is the more potent here.

Compared with `O=C(Nc1cncc(-c2ccc3[nH]nc(-c4nc5c(N6CCCCC6)cccc5[nH]4)c3c2)c1)c1ccccc1` [Compound 155, N-(5-(3-(4-(Piperidin-1-yl)-1H-benzo[d]imidazol-2-yl)-1H-indazol-5-yl)pyridin-3-yl)benzamide], `O=C(Nc1cncc(-c2ccc3[nH]nc(-c4nc5c(-c6ccoc6)cccc5[nH]4)c3c2)c1)C1CC1` [Compound 283, N-(5-(3-(4-(Furan-3-yl)-1H-benzo[d]imidazol-2-yl)-1H-indazol-5-yl)pyridin-3-yl)cyclopropanecarboxamide] is 5.1-fold lower in IC50: 0.289 µM for the first, 0.057 µM for the second. The second is the more potent here.

`Cc1ccncc1-c1ccc2[nH]nc(-c3nc4c(-c5ccccn5)cccc4[nH]3)c2c1` [Compound 125, 5-(4-Methylpyridin-3-yl)-3-(4-(pyridin-2-yl)-1H-benzo[d]imidazol-2-yl)-1H-indazole] and `Cc1cn(-c2cccc3[nH]c(-c4n[nH]c5ccc(-c6cnccc6C)cc45)nc23)cn1` [Compound 173] are within 1.5-fold of each other in IC50: 0.054 µM for the first, 0.046 µM for the second.

`CCCCC(=O)Nc1cncc(-c2ccc3[nH]nc(-c4nc5c(-c6cccnc6)cccc5[nH]4)c3c2)c1` [Compound 90, N-(5-(3-(4-(Pyridin-3-yl)-1H-benzo[d]imidazol-2-yl)-1H-indazol-5-yl)pyridin-3-yl)pentanamide] and `CC(C)Nc1cncc(-c2ccc3[nH]nc(-c4nc5c(-c6cccnc6)cccc5[nH]4)c3c2)c1` [Compound 84, N-Isopropyl-5-(3-(4-(pyridin-3-yl)-1H-benzo[d]imidazol-2-yl)-1H-indazol-5-yl)pyridin-3-amine] are within 1.5-fold of each other in IC50: 0.011 µM for the first, 0.013 µM for the second.

`CN(C)Cc1cncc(-c2ccc3[nH]nc(-c4nc5c(-c6ccsc6)cccc5[nH]4)c3c2)c1` [Compound 253, N,N-Dimethyl-1-(5-(3-(4-(thiophen-3-yl)-1H-benzo[d]imidazol-2-yl)-1H-indazol-5-yl)pyridin-3-yl)methanamine] and `Nc1cncc(-c2ccc3[nH]nc(-c4nc5c(-c6cccnc6)cccc5[nH]4)c3c2)c1` [Compound 75, 5-(3-(4-(Pyridin-3-yl)-1H-benzo[d]imidazol-2-yl)-1H-indazol-5-yl)pyridin-3-amine] are within 1.5-fold of each other in IC50: 0.007 µM for the first, 0.006 µM for the second.

`Fc1ccc(-c2cccc3[nH]c(-c4n[nH]c5ccc(-c6cncc(CN7CCCC7)c6)cc45)nc23)cc1` [Compound 38, 3-(4-(4-Fluorophenyl)-1H-benzo[d]imidazol-2-yl)-5-(5-(pyrrolidin-1-ylmethyl)pyridin-3-yl)-1H-indazole] and `c1cc(-c2ccncc2)c2nc(-c3n[nH]c4ccc(-c5cncc(CN6CCCC6)c5)cc34)[nH]c2c1` [Compound 110, 3-(4-(Pyridin-4-yl)-1H-benzo[d]imidazol-2-yl)-5-(5-(pyrrolidin-1-ylmethyl)pyridin-3-yl)-1H-indazole] are within 1.5-fold of each other in IC50: 0.153 µM for the first, 0.205 µM for the second.

`Fc1ccc(-c2cccc3[nH]c(-c4n[nH]c5ccc(-c6cncc(CNCc7ccccc7)c6)cc45)nc23)cc1` [Compound 47, N-benzyl-1-(5-(3-(4-(4-Fluorophenyl)-1H-benzo[d]imidazol-2-yl)-1H-indazol-5-yl)pyridin-3-yl)methanamine] showed an IC50 of 0.45 µM.
